Laboratory results from patent US20050153951A1, “Neurotrophic pyrrolidines and piperidines, and related compositions and methods” (priority 1999, published 2005).
Values joined by “and” are separate entries in the source; they are usually repeats but may differ in a detail not shown here. Equal values may be shown once.

Legend:
[1] = test system: Dorsal Root Ganglion (DRG); assay: Dorsal Root Ganglion (DRG) culture, neurite outgrowth; assay type: cell-based, rat; parameters: key: +: Positive results for each experiment; −: Negative results for each experiment; conditions: test compound 50-250 nM; neurite outgrowth examined days 1-5; positive if neurites of ≧1 diameter of the DRG; one symbol per experiment
Procedure: DRG are dissected from newborn or 1-day-old CD rats and placed into PBS on ice. After rinsing twice with sterile plating medium, DRG are transferred to empty wells of a 6-well plate coated with polyornithine/laminin (Becton Dickinson Labware) using #7 curved forceps. Three ml/well of plating medium are then added very gently, so as not to disturb the DRG. Plating medium is Leibovitz's L-15 medium (Gibco), plus 0.6% glucose, 33 mM KCl, 10% FCS, 10 mM Hepes and penicillin/streptomycin/glutamine. After overnight incubation at about 37° C. in 5% CO2, this medium is replaced with 3 mL/well of assay medium [Leibovitz's L-15 medium plus 0.6% glucose, 1% FCS, 1% N-2 supplement (Gibco), 10 μM ara-C, 10 mM Hepes, and penicillin/streptomycin/glutamine] containing either vehicle (DMSO, 1/200,000), positive control (24 ng/mL NGF) or test compound (50-250 nM). All media are prepared fresh daily. DRG are microscopically examined for neurite outgrowth on days 1-5.

[2] = test system: Human M17 Neuroblastoma Cells; assay: Neurite outgrowth assay, M17 neuroblastoma cells; assay type: cell-based; conditions: MAP-2 immunofluorescence; active if greater than mean DMSO-treated control on the same plate
Procedure: M17 human neuroblastoma cells are cultured in 1:1 ratio of EMEM and Hams's F12 with 1×NEM and 10% FBS. The culture media contains 1×PSN antibiotic and is exchanged every other day, and the cells are passed in log phase near confluence.
(§1) Cultures are incubated with normal horse serum (1:50; Vector Labs) for about 20 min, rinsed and then incubated with primary antibody, microtubule associated-protein 2 (anti-mouse MAP-2; 1:1000; Chemicon) for about 2 h at about RT. Following primary antibody, cultures are rinsed and incubated with fluorescein anti-mouse IgG (rat absorbed; 1:50; Vector Labs) for about 1 h. After fluorescein incubation, the cultures are rinsed and read in PBS on a fluorescent plate reader (excitation: 485 nm; emission: 530 nm). […] The response to test compound is reported as percent of DMSO-treated control.

[3] = test system: Primary Rat Hippocampal Cells; assay: Neurite outgrowth assay, primary rat hippocampal cells; assay type: cell-based; conditions: MAP-2 immunofluorescence; active if greater than mean DMSO-treated control on the same plate
Procedure: Hippocampal cells are dissected from the brains of embryonic day 18 rat pups and dissociated with trypsin (1 mg/mL) and trituration. Cells are seeded at 30,000 cells/well in 96-well plates filled with 100 μL MEM and 10% FBS. At 7 days in culture, cells are fixed with 4% paraformaldehyde and immuno-fluorescence is performed.
as §1

facial nerve = assay: Rat facial nerve compression model; assay type: in vivo; conditions: p.o. about 20 mg/kg twice a day for 15 days; compared to vehicle and internal control; FIG. 1
Procedure: In this model, compressing the facial nerve causes paralysis of the whisker muscle on that side of the face. The untreated facial nerve on the other side functions as an internal control. […] The whisker movement recovery rate on the paralyzed side compared to the vehicle and internal control is shown in this FIGURE.
Long-Evans rats are anesthetized under ketamine (60 mg/kg)/xylazine (6 mg/kg). The facial nerve is exposed and mechanically compressed with forceps near the stylomastoid foramen unilaterally with the opposite, non-lesioned side serving as an internal control. […] Rats received test compound p.o. at about 20 mg/kg twice a day for 15 days after the surgery. Control rats received vehicle only. Three to eight rats are tested in each group. Restoration of whisker movement after the treatment with compounds of the present invention is recorded at different post-operative time points daily, up to two weeks, and is shown in FIG. 1.

[4] = test system: PC12 cells and sensory ganglia; conditions: cultures of PC12 cells and sensory ganglia; Lyons et al. 1994; cited from earlier work

O=C(NCc1cccnc1)c1ncoc1[C@@H]1CCCN1C(=O)OCc1ccccc1 [Compound 1]
DRG [1]: −
M17 Cell Response [2]: 103% of DMSO-treated control

O=C(NCc1cccnc1)c1ncoc1[C@@H]1CCCN1S(=O)(=O)Cc1ccccc1 [Compound 3]
DRG [1]: −

O=C(OCc1cccnc1)c1ncoc1[C@@H]1CCCN1C(=O)OCc1ccccc1 [Compound 4]
Rat Hippocampal Cell Response [3]: 111% of DMSO-treated control and 123% of DMSO-treated control
DRG [1]: +
M17 Cell Response [2]: 134% of DMSO-treated control and 111% of DMSO-treated control

O=C(NCc1cccnc1)c1csc([C@@H]2CCCN2C(=O)OCc2ccccc2)n1 [Compound 11]
DRG [1]: +

O=C(NCc1cccnc1)c1csc([C@@H]2CCCN2S(=O)(=O)Cc2ccccc2)n1 [Compound 13]
DRG [1]: −
M17 Cell Response [2]: 102% of DMSO-treated control

CCC(C)(C)C(=O)C(=O)N1CCC[C@H]1c1nc(C(=O)NCc2cccnc2)cs1 [Compound 14]
Rat Hippocampal Cell Response [3]: 116% of DMSO-treated control
M17 Cell Response [2]: 112% of DMSO-treated control and 108% of DMSO-treated control

CCC(C)(C)C(=O)C(=O)N1CCC[C@H]1c1nc(COc2cccnc2)cs1 [Compound 19]
Rat Hippocampal Cell Response [3]: 109% of DMSO-treated control
M17 Cell Response [2]: 110% of DMSO-treated control

CCC(C)(C)C(=O)C(=O)N1CCC[C@H]1C(=O)NNC(=O)[C@@H]1CCCN1C(=O)C(=O)C(C)(C)CC [Compound 24]
Rat Hippocampal Cell Response [3]: 119% of DMSO-treated control and 104% of DMSO-treated control and 108% of DMSO-treated control
DRG [1]: + and −
M17 Cell Response [2]: 123% of DMSO-treated control

CCC(C)(C)C(=O)C(=O)N1CCCC[C@H]1C(=O)NNC(=O)[C@@H]1CCCCN1C(=O)C(=O)C(C)(C)CC [Compound 25]
Rat Hippocampal Cell Response [3]: 108% of DMSO-treated control
M17 Cell Response [2]: 111% of DMSO-treated control

CCC(C)(C)C(=O)C(=O)N1CC[C@H]1C(=O)NNC(=O)[C@@H]1CCN1C(=O)C(=O)C(C)(C)CC [Compound 26]
Rat Hippocampal Cell Response [3]: 133% of DMSO-treated control

CCC(C)(C)C(=O)C(=O)N1CCCC1c1nnc([C@@H]2CCCN2C(=O)C(=O)C(C)(C)CC)o1 (some centres unmarked) [Compound 30]
Rat Hippocampal Cell Response [3]: 161% of DMSO-treated control and 118% of DMSO-treated control and 130% of DMSO-treated control
DRG [1]: +, +, +, +, +
Restoration of whisker movement on the paralyzed side (facial nerve): restored more rapidly
M17 Cell Response [2]: 112% of DMSO-treated control and 103% of DMSO-treated control

CCC(C)(C)C(=O)C(=O)N1CCC[C@H]1c1nc(CCc2cccnc2)no1 [Compound 31]
Rat Hippocampal Cell Response [3]: 124% of DMSO-treated control
DRG [1]: + and −
M17 Cell Response [2]: 111% of DMSO-treated control

CCC(C)(C)C(=O)C(=O)N1CCC[C@H]1C(=O)NNC(=O)CCc1cccnc1 [Compound 32]
M17 Cell Response [2]: 103% of DMSO-treated control

CCC(C)(C)C(=O)C(=O)N1CCC[C@H]1c1nnc(CCc2cccnc2)o1 [Compound 33]
Rat Hippocampal Cell Response [3]: 112% of DMSO-treated control
M17 Cell Response [2]: 104% of DMSO-treated control

CCC(C)(C)C(=O)C(=O)N1CCC[C@H]1C(=O)NNC(=O)CCc1cc(OC)c(OC)c(OC)c1 [Compound 34]
Rat Hippocampal Cell Response [3]: 113% of DMSO-treated control
M17 Cell Response [2]: 106% of DMSO-treated control

CCC(C)(C)C(=O)C(=O)N1CCC[C@H]1c1nnc(CCc2cc(OC)c(OC)c(OC)c2)o1 [Compound 35]
Rat Hippocampal Cell Response [3]: 126% of DMSO-treated control
M17 Cell Response [2]: 106% of DMSO-treated control

CCC(C)(C)C(=O)C(=O)N1CCCC[C@H]1C(=O)NNC(=O)CCc1cc(OC)c(OC)c(OC)c1 [Compound 37]
Rat Hippocampal Cell Response [3]: 130% of DMSO-treated control
M17 Cell Response [2]: 111% of DMSO-treated control

CCC(C)(C)C(=O)C(=O)N1CCCC[C@H]1c1nnc(CCc2cccnc2)o1 [Compound 38]
Rat Hippocampal Cell Response [3]: 129% of DMSO-treated control
M17 Cell Response [2]: 105% of DMSO-treated control

CCC(C)(C)C(=O)C(=O)N1CCCC[C@H]1c1nnc(CCc2cc(OC)c(OC)c(OC)c2)o1 [Compound 39]
M17 Cell Response [2]: 112% of DMSO-treated control

CCC(C)(C)C(=O)C(=O)N1CCCCC1c1nnc([C@@H]2CCCCN2C(=O)C(=O)C(C)(C)CC)o1 (some centres unmarked) [Compound 44]
M17 Cell Response [2]: 118% of DMSO-treated control

O=C(C(=O)N1CCCC1c1nnc([C@@H]2CCCN2C(=O)C(=O)c2cccs2)o1)c1cccs1 (some centres unmarked) [Compound 48]
Rat Hippocampal Cell Response [3]: 113% of DMSO-treated control

CCC(C)(C)C(=O)C(=O)N1CCC[C@H]1C(=O)NNC(=O)[C@@H]1CCCN1C(=O)OCc1ccccc1 [Compound 50]
Rat Hippocampal Cell Response [3]: 110% of DMSO-treated control

COC(=O)C(=O)N1CCCC1c1nnc([C@@H]2CCCN2C(=O)C(=O)OC)o1 (some centres unmarked) [Compound 51]
Rat Hippocampal Cell Response [3]: 107% of DMSO-treated control

CCC(C)(C)C(=O)C(=O)N1CCC1c1nnc([C@@H]2CCN2C(=O)C(=O)C(C)(C)CC)o1 (some centres unmarked) [Compound 52]
Rat Hippocampal Cell Response [3]: 110% of DMSO-treated control

O=S(=O)(Cc1ccccc1)N1CCCC1c1nnc([C@@H]2CCCN2S(=O)(=O)Cc2ccccc2)o1 (some centres unmarked) [Compound 54]
Rat Hippocampal Cell Response [3]: 113% of DMSO-treated control

CCC(C)(C)C(=O)C(=O)N1CCC[C@H]1c1nnc(C2CCCN2)o1 (some centres unmarked) [Compound 55]
Rat Hippocampal Cell Response [3]: 116% of DMSO-treated control

COc1cc(C(=O)C(=O)N2CCCC2c2nnc([C@@H]3CCCN3C(=O)C(=O)c3cc(OC)c(OC)c(OC)c3)o2)cc(OC)c1OC (some centres unmarked) [Compound 56]
Rat Hippocampal Cell Response [3]: 118% of DMSO-treated control and 116% of DMSO-treated control

CCC(C)(C)C(=O)C(=O)N1CSCC1c1nnc([C@@H]2CSCN2C(=O)C(=O)C(C)(C)CC)o1 (some centres unmarked) [Compound 58]
Rat Hippocampal Cell Response [3]: 142% of DMSO-treated control

CCC(C)(C)C(=O)C(=O)N1CCC[C@H]1C(=O)NNC(=O)c1cccnc1 [Compound 59]
Rat Hippocampal Cell Response [3]: 116% of DMSO-treated control

CCC(C)(C)C(=O)C(=O)N1CCC[C@H]1c1nnc(-c2cccnc2)o1 [Compound 60]
Rat Hippocampal Cell Response [3]: 114% of DMSO-treated control

CC(C)(C)C(=O)C(=O)N1CCCC1c1nnc([C@@H]2CCCN2C(=O)C(=O)C(C)(C)C)o1 (some centres unmarked) [Compound 62]
Rat Hippocampal Cell Response [3]: 120% of DMSO-treated control

CCC(C)(C)C(=O)C(=O)N1CCCC1C(=O)NNC(=O)[C@H]1CCCN1C(=O)C(=O)C(C)(C)CC (some centres unmarked) [Compound 63]
Rat Hippocampal Cell Response [3]: 110% of DMSO-treated control

CCC(C)(C)C(=O)C(=O)N1CCC[C@@H]1c1nnc([C@H]2CCCN2C(=O)C(=O)C(C)(C)CC)o1 [Compound 64]
Rat Hippocampal Cell Response [3]: 122% of DMSO-treated control

C=CC[C@@H]1/C=C(\C)C[C@H](C)C[C@H](OC)[C@H]2O[C@@](O)(C(=O)C(=O)N3CCCC[C@H]3C(=O)O[C@H](/C(C)=C/[C@@H]3CC[C@@H](O)[C@H](OC)C3)[C@H](C)[C@@H](O)CC1=O)[C@H](C)C[C@@H]2OC [FK506]
neurotrophic activity [4]: shows neurotrophic activity
